Like-named read-outs stand apart in the source and are kept apart here. Starred links: 1 amine or outer side, 2 acyl side, 3 side chain; linkers in the order of their positions; H or OH if unused. Positions of bridges follow the written chain, without caps; N, C: chain ends. Residues, ends and D or L forms follow the SMILES beside them. Chains are numbered I, II in the order given. X1 = C[C@@H](CNC(=O)N[C@@H](C)CNC(=O)[*:2])NC(=O)NC[C@H](C)N[*:1]; X5 = C[C@@H](CNC(=O)N[C@@H](C)CNC(=O)[*:1])NC(=O)NC[C@H](C)N[*:2]
Columns and labels:
mouse GLP-1 receptor [1] = target: T1, mouse GLP-1 receptor (Mus musculus, UniProt O35659); conditions: for Potency (%), percentage of potency compare to GLP-1-G^2: cAMP production, from EC50
T1 sequence (O35659 22-463): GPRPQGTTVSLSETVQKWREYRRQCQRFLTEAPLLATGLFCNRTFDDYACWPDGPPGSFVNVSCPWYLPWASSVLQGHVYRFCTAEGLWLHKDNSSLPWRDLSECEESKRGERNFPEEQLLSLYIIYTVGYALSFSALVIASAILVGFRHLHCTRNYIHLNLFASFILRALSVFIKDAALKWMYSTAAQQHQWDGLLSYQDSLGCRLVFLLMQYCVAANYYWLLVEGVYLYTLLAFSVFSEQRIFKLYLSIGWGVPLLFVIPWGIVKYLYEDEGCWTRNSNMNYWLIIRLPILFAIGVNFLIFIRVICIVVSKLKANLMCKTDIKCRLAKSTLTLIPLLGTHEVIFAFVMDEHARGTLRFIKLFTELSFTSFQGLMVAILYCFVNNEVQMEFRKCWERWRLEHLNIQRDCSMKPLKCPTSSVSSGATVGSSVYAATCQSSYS

mouse GLP-1 receptor [2] = target: T1, mouse GLP-1 receptor; experiment: cell-based; conditions: for Emax: 14: experiment 1
[3] = read-out: Top (best-fit value), variable slope four-parameter fit, unconstrained
[4] = read-out: Top (best-fit value), fit with BOTTOM = 0%

Structure (SMILES)	LogEC50 (best-fit value) (mouse GLP-1 receptor [1])	Potency (%), percentage of potency compare to GLP-1-G^2 (mouse GLP-1 receptor [1]) [%]	EC50 (mouse GLP-1 receptor [2]) [nM]	Emax (mouse GLP-1 receptor [2]; [3]) [%]	Emax (mouse GLP-1 receptor [2]; [4]) [%]
CC[C@H](C)[C@H](NC(=O)[C@H](Cc1ccccc1)NC(=O)[C@H](CCC(=O)O)NC(=O)[C@H](CCCCN)NC(=O)[C@H](C)NC(=O)[C@H](C)NC(=O)[C@H](CCC(N)=O)NC(=O)CNC(=O)[C@H](CCC(=O)O)NC(=O)[C@H](CC(C)C)NC(=O)NC[C@H](C)NC(=O)NC[C@H](C)NC(=O)NC[C@H](C)NC(=O)[C@H](CC(=O)O)NC(=O)[C@H](CO)NC(=O)[C@@H](NC(=O)[C@H](Cc1ccccc1)NC(=O)[C@@H](NC(=O)CNC(=O)[C@H](CCC(=O)O)NC(=O)CNC(=O)[C@@H](N)Cc1c[nH]cn1)[C@@H](C)O)[C@@H](C)O)C(=O)N[C@@H](C)C(=O)N[C@@H](Cc1c[nH]c2ccccc12)C(=O)N[C@@H](CC(C)C)C(=O)N[C@H](C(=O)N[C@@H](CCCCN)C(=O)NCC(=O)N[C@@H](CCCNC(=N)N)C(=O)NCC(N)=O)C(C)C [compound 3, GG2[A^uA^uA^u]^10-13]	-6.187	0.04	650	91.6	
CC[C@H](C)[C@H](NC(=O)[C@H](Cc1ccccc1)NC(=O)[C@H](CCC(=O)O)NC(=O)[C@H](CCCCN)NC(=O)[C@H](C)NC(=O)[C@H](C)NC(=O)[C@H](CCC(N)=O)NC(=O)CNC(=O)[C@H](CCC(=O)O)NC(=O)NC[C@H](C)NC(=O)NC[C@H](C)NC(=O)NC[C@H](C)NC(=O)[C@@H](NC(=O)[C@H](CC(=O)O)NC(=O)[C@H](CO)NC(=O)[C@@H](NC(=O)[C@H](Cc1ccccc1)NC(=O)[C@@H](NC(=O)CNC(=O)[C@H](CCC(=O)O)NC(=O)CNC(=O)[C@@H](N)Cc1c[nH]cn1)[C@@H](C)O)[C@@H](C)O)C(C)C)C(=O)N[C@@H](C)C(=O)N[C@@H](Cc1c[nH]c2ccccc12)C(=O)N[C@@H](CC(C)C)C(=O)N[C@H](C(=O)N[C@@H](CCCCN)C(=O)NCC(=O)N[C@@H](CCCNC(=N)N)C(=O)NCC(N)=O)C(C)C [compound 4, GG2[A^uA^uA^u]^11-14]	-7.014	0.2	97	81.8	
CC[C@H](C)[C@H](NC(=O)[C@H](Cc1ccccc1)NC(=O)[C@H](CCC(=O)O)NC(=O)[C@H](CCCCN)NC(=O)[C@H](C)NC(=O)[C@H](C)NC(=O)[C@H](CCC(N)=O)NC(=O)CNC(=O)NC[C@H](C)NC(=O)NC[C@H](C)NC(=O)NC[C@H](C)NC(=O)[C@H](CO)NC(=O)[C@@H](NC(=O)[C@H](CC(=O)O)NC(=O)[C@H](CO)NC(=O)[C@@H](NC(=O)[C@H](Cc1ccccc1)NC(=O)[C@@H](NC(=O)CNC(=O)[C@H](CCC(=O)O)NC(=O)CNC(=O)[C@@H](N)Cc1c[nH]cn1)[C@@H](C)O)[C@@H](C)O)C(C)C)C(=O)N[C@@H](C)C(=O)N[C@@H](Cc1c[nH]c2ccccc12)C(=O)N[C@@H](CC(C)C)C(=O)N[C@H](C(=O)N[C@@H](CCCCN)C(=O)NCC(=O)N[C@@H](CCCNC(=N)N)C(=O)NCC(N)=O)C(C)C [compound 6, GG2[A^uA^uA^u]^12-15]		< 0.01	> 10000	6.19	6.08
CC[C@H](C)[C@H](NC(=O)[C@H](Cc1ccccc1)NC(=O)[C@H](CCC(=O)O)NC(=O)[C@H](CCCCN)NC(=O)NC[C@H](C)NC(=O)NC[C@H](C)NC(=O)NC[C@H](C)NC(=O)[C@H](CCC(=O)O)NC(=O)[C@H](CC(C)C)NC(=O)[C@H](Cc1ccc(O)cc1)NC(=O)[C@H](CO)NC(=O)[C@H](CO)NC(=O)[C@@H](NC(=O)[C@H](CC(=O)O)NC(=O)[C@H](CO)NC(=O)[C@@H](NC(=O)[C@H](Cc1ccccc1)NC(=O)[C@@H](NC(=O)CNC(=O)[C@H](CCC(=O)O)NC(=O)CNC(=O)[C@@H](N)Cc1c[nH]cn1)[C@@H](C)O)[C@@H](C)O)C(C)C)C(=O)N[C@@H](C)C(=O)N[C@@H](Cc1c[nH]c2ccccc12)C(=O)N[C@@H](CC(C)C)C(=O)N[C@H](C(=O)N[C@@H](CCCCN)C(=O)NCC(=O)N[C@@H](CCCNC(=N)N)C(=O)NCC(N)=O)C(C)C [compound 12, GG2[A^uA^uA^u]^16-19]	-6.619	0.1	240	65	
CC[C@H](C)[C@H](NC(=O)NC[C@H](C)NC(=O)NC[C@H](C)NC(=O)NC[C@H](C)NC(=O)[C@H](C)NC(=O)[C@H](CCC(N)=O)NC(=O)CNC(=O)[C@H](CCC(=O)O)NC(=O)[C@H](CC(C)C)NC(=O)[C@H](Cc1ccc(O)cc1)NC(=O)[C@H](CO)NC(=O)[C@H](CO)NC(=O)[C@@H](NC(=O)[C@H](CC(=O)O)NC(=O)[C@H](CO)NC(=O)[C@@H](NC(=O)[C@H](Cc1ccccc1)NC(=O)[C@@H](NC(=O)CNC(=O)[C@H](CCC(=O)O)NC(=O)CNC(=O)[C@@H](N)Cc1c[nH]cn1)[C@@H](C)O)[C@@H](C)O)C(C)C)C(=O)N[C@@H](C)C(=O)N[C@@H](Cc1c[nH]c2ccccc12)C(=O)N[C@@H](CC(C)C)C(=O)N[C@H](C(=O)N[C@@H](CCCCN)C(=O)NCC(=O)N[C@@H](CCCNC(=N)N)C(=O)NCC(N)=O)C(C)C [compound 15, GG2[A^uA^uA^u]^19-22] (I: H-HGEGTFTSDVSSYLEGQA / II: IAWLVKGRG-NH2; linker I:C-II:N via X1)			> 10000	92.7	~538

Further lines, results first:

LogEC50 (best-fit value) (mouse GLP-1 receptor [1])	Potency (%), percentage of potency compare to GLP-1-G^2 (mouse GLP-1 receptor [1]) [%]	EC50 (mouse GLP-1 receptor [2]) [nM]	Emax (mouse GLP-1 receptor [2]; [3]) [%]	Emax (mouse GLP-1 receptor [2]; [4]) [%]	Structure (SMILES)
		> 10000	~208		CC[C@H](C)[C@H](NC(=O)[C@H](Cc1ccccc1)NC(=O)[C@H](CCC(=O)O)NC(=O)[C@H](CCCCN)NC(=O)[C@H](C)NC(=O)[C@H](C)NC(=O)[C@H](CCC(N)=O)NC(=O)NC[C@H](C)NC(=O)NC[C@H](C)NC(=O)NC[C@H](C)NC(=O)[C@H](CO)NC(=O)[C@H](CO)NC(=O)[C@@H](NC(=O)[C@H](CC(=O)O)NC(=O)[C@H](CO)NC(=O)[C@@H](NC(=O)[C@H](Cc1ccccc1)NC(=O)[C@@H](NC(=O)CNC(=O)[C@H](CCC(=O)O)NC(=O)CNC(=O)[C@@H](N)Cc1c[nH]cn1)[C@@H](C)O)[C@@H](C)O)C(C)C)C(=O)N[C@@H](C)C(=O)N[C@@H](Cc1c[nH]c2ccccc12)C(=O)N[C@@H](CC(C)C)C(=O)N[C@H](C(=O)N[C@@H](CCCCN)C(=O)NCC(=O)N[C@@H](CCCNC(=N)N)C(=O)NCC(N)=O)C(C)C [compound 7, GG2[A^uA^uA^u]^13-16] (I: QAAKEFIAWLVKGRG-NH2 / II: H-HGEGTFTSDVSS; linker I:N-II:C via X5)
-6.452	0.07	353	73.4		CC[C@H](C)[C@H](NC(=O)[C@H](Cc1ccccc1)NC(=O)[C@H](CCC(=O)O)NC(=O)[C@H](CCCCN)NC(=O)[C@H](C)NC(=O)[C@H](C)NC(=O)NC[C@H](C)NC(=O)NC[C@H](C)NC(=O)NC[C@H](C)NC(=O)[C@H](Cc1ccc(O)cc1)NC(=O)[C@H](CO)NC(=O)[C@H](CO)NC(=O)[C@@H](NC(=O)[C@H](CC(=O)O)NC(=O)[C@H](CO)NC(=O)[C@@H](NC(=O)[C@H](Cc1ccccc1)NC(=O)[C@@H](NC(=O)CNC(=O)[C@H](CCC(=O)O)NC(=O)CNC(=O)[C@@H](N)Cc1c[nH]cn1)[C@@H](C)O)[C@@H](C)O)C(C)C)C(=O)N[C@@H](C)C(=O)N[C@@H](Cc1c[nH]c2ccccc12)C(=O)N[C@@H](CC(C)C)C(=O)N[C@H](C(=O)N[C@@H](CCCCN)C(=O)NCC(=O)N[C@@H](CCCNC(=N)N)C(=O)NCC(N)=O)C(C)C [compound 8, GG2[A^uA^uA^u]^14-17] (I: AAKEFIAWLVKGRG-NH2 / II: H-HGEGTFTSDVSSY; linker I:N-II:C via X5)
-6.91	0.2	123	61.5		CC[C@H](C)[C@H](NC(=O)[C@H](Cc1ccccc1)NC(=O)[C@H](CCC(=O)O)NC(=O)[C@H](CCCCN)NC(=O)[C@H](C)NC(=O)NC[C@H](C)NC(=O)NC[C@H](C)NC(=O)NC[C@H](C)NC(=O)[C@H](CC(C)C)NC(=O)[C@H](Cc1ccc(O)cc1)NC(=O)[C@H](CO)NC(=O)[C@H](CO)NC(=O)[C@@H](NC(=O)[C@H](CC(=O)O)NC(=O)[C@H](CO)NC(=O)[C@@H](NC(=O)[C@H](Cc1ccccc1)NC(=O)[C@@H](NC(=O)CNC(=O)[C@H](CCC(=O)O)NC(=O)CNC(=O)[C@@H](N)Cc1c[nH]cn1)[C@@H](C)O)[C@@H](C)O)C(C)C)C(=O)N[C@@H](C)C(=O)N[C@@H](Cc1c[nH]c2ccccc12)C(=O)N[C@@H](CC(C)C)C(=O)N[C@H](C(=O)N[C@@H](CCCCN)C(=O)NCC(=O)N[C@@H](CCCNC(=N)N)C(=O)NCC(N)=O)C(C)C [compound 10, GG2[A^uA^uA^u]^15-18] (I: H-HGEGTFTSDVSSYL / II: AKEFIAWLVKGRG-NH2; linker I:C-II:N via X1)
-5.795		1600	57.7		CC[C@H](C)[C@H](NC(=O)[C@H](Cc1ccccc1)NC(=O)[C@H](CCC(=O)O)NC(=O)NC[C@H](C)NC(=O)NC[C@H](C)NC(=O)NC[C@H](C)NC(=O)CNC(=O)[C@H](CCC(=O)O)NC(=O)[C@H](CC(C)C)NC(=O)[C@H](Cc1ccc(O)cc1)NC(=O)[C@H](CO)NC(=O)[C@H](CO)NC(=O)[C@@H](NC(=O)[C@H](CC(=O)O)NC(=O)[C@H](CO)NC(=O)[C@@H](NC(=O)[C@H](Cc1ccccc1)NC(=O)[C@@H](NC(=O)CNC(=O)[C@H](CCC(=O)O)NC(=O)CNC(=O)[C@@H](N)Cc1c[nH]cn1)[C@@H](C)O)[C@@H](C)O)C(C)C)C(=O)N[C@@H](C)C(=O)N[C@@H](Cc1c[nH]c2ccccc12)C(=O)N[C@@H](CC(C)C)C(=O)N[C@H](C(=O)N[C@@H](CCCCN)C(=O)NCC(=O)N[C@@H](CCCNC(=N)N)C(=O)NCC(N)=O)C(C)C [compound 13, GG2[A^uA^uA^u]^17-20]
